Measurements from patent publication US20080214557A1, “METHOD FOR PREPARATION OF PHARMACEUTICAL COMPOSITION HAVING IMPROVED DISINTEGRATABILITY AND PHARMACEUTICAL COMPOSITION MANUFACTURED BY SAME METHOD” (Eisai R&D Management Co., Ltd., priority 2005, published 2008).

Assay: pH of 2.5 wt % aqueous solutions of the salts in purified water
Assay type: physicochemical
Details: 2.5 wt % aqueous solution in purified water

pH of 2.5% salt solution | Compound
8.40 | [Ca+2].[Cl-].[Cl-] [CaCl2(anhydrous), anhydrous calcium chloride]
11.31 | O=C([O-])[O-].[Na+].[Na+] [Na2CO3(anhydrous), anhydrous sodium carbonate]
8.25 | anhydrous sodium acetate [CH3CO2Na(anhydrous)]
8.09 | O=C([O-])O.[Na+] [NaHCO3(anhydrous), anhydrous sodium bicarbonate]
6.12 | NCC(=O)O [Glycine, glycine]

Compound | pH of 2.5% salt solution
[Cl-].[K+] [KCl, potassium chloride] | 6.05
O=P([O-])([O-])O.[Na+].[Na+] [Na2HPO4(anhydrous), anhydrous disodium hydrogen phosphate] | 8.90
Cl.N [NH4Cl, ammonium chloride] | 4.97
[Cl-].[Na+] [NaCl, sodium chloride] | 5.69
